Results: ChEMBL document CHEMBL1201862, “PubChem BioAssay data set” (2004)
Activity calls are given as the source filed them.

Assays:
Type in all cases: functional
[1] = molecular target: T1, Sentrin-specific protease 7 (Homo sapiens, UniProt Q9BQF6);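 also: Luminescence-based dose-response confirmation of ultra-high-throughput screening hits, measuring inhibition of SENP7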
T1 sequence (Q9BQF6 whole entry): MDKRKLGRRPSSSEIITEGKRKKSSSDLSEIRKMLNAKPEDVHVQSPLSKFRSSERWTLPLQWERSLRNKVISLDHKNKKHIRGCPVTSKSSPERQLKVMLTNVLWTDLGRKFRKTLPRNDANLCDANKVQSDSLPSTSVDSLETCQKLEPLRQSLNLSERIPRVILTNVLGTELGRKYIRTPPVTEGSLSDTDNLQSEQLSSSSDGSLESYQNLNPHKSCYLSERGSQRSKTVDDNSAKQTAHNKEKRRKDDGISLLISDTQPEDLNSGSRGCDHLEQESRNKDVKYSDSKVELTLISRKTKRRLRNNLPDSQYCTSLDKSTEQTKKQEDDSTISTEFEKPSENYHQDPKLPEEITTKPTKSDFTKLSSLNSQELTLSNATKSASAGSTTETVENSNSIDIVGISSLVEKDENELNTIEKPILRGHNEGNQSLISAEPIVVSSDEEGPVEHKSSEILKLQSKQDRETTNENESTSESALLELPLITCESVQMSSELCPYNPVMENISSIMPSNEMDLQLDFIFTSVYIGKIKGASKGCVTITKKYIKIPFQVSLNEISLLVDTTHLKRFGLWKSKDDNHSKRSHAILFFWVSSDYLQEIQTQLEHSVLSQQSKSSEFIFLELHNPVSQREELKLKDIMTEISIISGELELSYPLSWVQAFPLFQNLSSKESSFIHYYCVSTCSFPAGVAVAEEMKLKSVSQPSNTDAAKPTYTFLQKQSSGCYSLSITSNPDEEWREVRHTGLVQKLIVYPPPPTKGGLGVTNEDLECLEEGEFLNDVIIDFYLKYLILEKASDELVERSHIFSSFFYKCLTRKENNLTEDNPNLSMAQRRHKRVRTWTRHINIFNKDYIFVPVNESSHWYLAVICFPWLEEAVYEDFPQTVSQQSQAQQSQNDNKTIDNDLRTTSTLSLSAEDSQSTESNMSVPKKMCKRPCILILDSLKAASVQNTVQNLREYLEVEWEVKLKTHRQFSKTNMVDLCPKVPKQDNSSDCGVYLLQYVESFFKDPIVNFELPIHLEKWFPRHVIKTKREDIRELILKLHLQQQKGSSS

H4 = assay: Luminescence Cell-Based Dose Response HTS to Identify Activators of 5'UTR Stem-Loop Driven Prion Protein mRNA Translation in H4 Neuroglioblastoma Cells. [Related pubchem assays: 1829 (Project Summary), 1814 (Primary HTS)]; details: Homo sapiens
[2] = molecular target: Serine/threonine-protein kinase Nek2 (Homo sapiens, UniProt P51955)
[3] = molecular target: Mast/stem cell growth factor receptor Kit (Homo sapiens, UniProt P10721);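 also: KIT entry within a kinase panel assay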
[4] = molecular target: Serine/threonine-protein kinase D2 (Homo sapiens, UniProt Q9BZL6);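 also: measured against PRKD2 as one member of a kinome-wide kinase profiling panel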
[5] = molecular target: Tyrosine-protein kinase Fer (Homo sapiens, UniProt P16591);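 also: FER tested as one member of a kinome panel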
[6] = molecular target: Mitogen-activated protein kinase 9 (Homo sapiens, UniProt P45984);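 also: value from a kinome panel profiling assay, MAPK9 panel entry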
[7] = molecular target: Insulin-like growth factor 1 receptor (Homo sapiens, UniProt P08069); assay: Navigating the Kinome. Panel member name: IGF1R
[8] = molecular target: Tyrosine-protein kinase ABL1 (Homo sapiens, UniProt P00519)
[9] = molecular target: Phosphorylase b kinase gamma catalytic chain, liver/testis isoform (Homo sapiens, UniProt P15735);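 also: PHKG2 measured as one member of a kinome-wide kinase panel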
[10] = molecular target: T2, Testis-specific serine/threonine-protein kinase 2 (Homo sapiens, UniProt Q96PF2);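 also: part of the Navigating the Kinome panel, target entry STK22B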
T2 sequence (Q96PF2 whole entry): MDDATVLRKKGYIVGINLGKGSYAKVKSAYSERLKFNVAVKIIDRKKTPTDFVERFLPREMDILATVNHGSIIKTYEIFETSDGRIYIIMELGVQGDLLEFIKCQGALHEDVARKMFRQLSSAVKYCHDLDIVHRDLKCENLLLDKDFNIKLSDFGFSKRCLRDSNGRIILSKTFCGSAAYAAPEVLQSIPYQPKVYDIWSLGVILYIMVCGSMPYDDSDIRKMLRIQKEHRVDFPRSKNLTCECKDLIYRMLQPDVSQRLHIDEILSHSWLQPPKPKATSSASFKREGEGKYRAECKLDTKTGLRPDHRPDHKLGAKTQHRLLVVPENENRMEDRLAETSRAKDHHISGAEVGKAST

[11] = molecular target: Dual specificity tyrosine-phosphorylation-regulated kinase 3 (Homo sapiens, UniProt O43781);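 also: measured as one member of a broad kinase panel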
[12] = molecular target: Tyrosine-protein kinase Fyn (Homo sapiens, UniProt P06241)
[13] = molecular target: Lymphokine-activated killer T-cell-originated protein kinase (Homo sapiens, UniProt Q96KB5);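 also: value comes from a kinase panel screen in which TOPK was one of the panel members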
[14] = molecular target: Mitogen-activated protein kinase 1 (Homo sapiens, UniProt P28482)
[15] = molecular target: Proto-oncogene tyrosine-protein kinase Src (Homo sapiens, UniProt P12931);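 also: SRC entry within a kinome-wide kinase profiling panel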
Ephrin type-A receptor 2 = Ephrin type-A receptor 2 (Homo sapiens, UniProt P29317);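 also: EPHA2 tested as one member of a kinome-wide kinase panel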
[16] = molecular target: Serine/threonine-protein kinase 3 (Homo sapiens, UniProt Q13188);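 also: measured as one member of a kinome-wide kinase panel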
[17] = molecular target: Receptor tyrosine-protein kinase erbB-2 (Homo sapiens, UniProt P04626); assay: Navigating the Kinome. Panel member name: ERBB2
[18] = molecular target: BDNF/NT-3 growth factors receptor (Homo sapiens, UniProt Q16620);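 also: NTRK2 measured as one member of a broad kinome-wide kinase profiling panel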
[19] = molecular target: Mitogen-activated protein kinase 13 (Homo sapiens, UniProt O15264)
[20] = molecular target: Inhibitor of nuclear factor kappa-B kinase subunit epsilon (Homo sapiens, UniProt Q14164); assay: Navigating the Kinome. Panel member name: IKBKE
[21] = molecular target: Protein kinase C theta type (Homo sapiens, UniProt Q04759); assay: Navigating the Kinome. Panel member name: PRKCQ
[22] = molecular target: Macrophage-stimulating protein receptor (Homo sapiens, UniProt Q04912); assay: Navigating the Kinome. Panel member name: MST1R
Aurora kinase A = Aurora kinase A (Homo sapiens, UniProt O14965);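 also: value from the Navigating the Kinome kinase panel profiling, panel entry STK6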
Sequence of Aurora kinase A (O14965 whole entry): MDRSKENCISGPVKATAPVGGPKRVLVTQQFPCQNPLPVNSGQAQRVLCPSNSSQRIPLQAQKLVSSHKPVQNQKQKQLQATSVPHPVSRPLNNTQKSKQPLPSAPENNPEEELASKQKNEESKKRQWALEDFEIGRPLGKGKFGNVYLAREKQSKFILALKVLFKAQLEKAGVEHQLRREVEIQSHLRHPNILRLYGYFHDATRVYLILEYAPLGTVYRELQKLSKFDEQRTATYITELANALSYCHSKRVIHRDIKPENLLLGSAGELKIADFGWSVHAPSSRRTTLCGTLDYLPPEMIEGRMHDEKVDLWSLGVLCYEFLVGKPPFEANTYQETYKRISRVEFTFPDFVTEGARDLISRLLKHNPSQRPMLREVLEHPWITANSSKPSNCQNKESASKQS

Sequence of Receptor tyrosine-protein kinase erbB-2 (P04626 whole entry): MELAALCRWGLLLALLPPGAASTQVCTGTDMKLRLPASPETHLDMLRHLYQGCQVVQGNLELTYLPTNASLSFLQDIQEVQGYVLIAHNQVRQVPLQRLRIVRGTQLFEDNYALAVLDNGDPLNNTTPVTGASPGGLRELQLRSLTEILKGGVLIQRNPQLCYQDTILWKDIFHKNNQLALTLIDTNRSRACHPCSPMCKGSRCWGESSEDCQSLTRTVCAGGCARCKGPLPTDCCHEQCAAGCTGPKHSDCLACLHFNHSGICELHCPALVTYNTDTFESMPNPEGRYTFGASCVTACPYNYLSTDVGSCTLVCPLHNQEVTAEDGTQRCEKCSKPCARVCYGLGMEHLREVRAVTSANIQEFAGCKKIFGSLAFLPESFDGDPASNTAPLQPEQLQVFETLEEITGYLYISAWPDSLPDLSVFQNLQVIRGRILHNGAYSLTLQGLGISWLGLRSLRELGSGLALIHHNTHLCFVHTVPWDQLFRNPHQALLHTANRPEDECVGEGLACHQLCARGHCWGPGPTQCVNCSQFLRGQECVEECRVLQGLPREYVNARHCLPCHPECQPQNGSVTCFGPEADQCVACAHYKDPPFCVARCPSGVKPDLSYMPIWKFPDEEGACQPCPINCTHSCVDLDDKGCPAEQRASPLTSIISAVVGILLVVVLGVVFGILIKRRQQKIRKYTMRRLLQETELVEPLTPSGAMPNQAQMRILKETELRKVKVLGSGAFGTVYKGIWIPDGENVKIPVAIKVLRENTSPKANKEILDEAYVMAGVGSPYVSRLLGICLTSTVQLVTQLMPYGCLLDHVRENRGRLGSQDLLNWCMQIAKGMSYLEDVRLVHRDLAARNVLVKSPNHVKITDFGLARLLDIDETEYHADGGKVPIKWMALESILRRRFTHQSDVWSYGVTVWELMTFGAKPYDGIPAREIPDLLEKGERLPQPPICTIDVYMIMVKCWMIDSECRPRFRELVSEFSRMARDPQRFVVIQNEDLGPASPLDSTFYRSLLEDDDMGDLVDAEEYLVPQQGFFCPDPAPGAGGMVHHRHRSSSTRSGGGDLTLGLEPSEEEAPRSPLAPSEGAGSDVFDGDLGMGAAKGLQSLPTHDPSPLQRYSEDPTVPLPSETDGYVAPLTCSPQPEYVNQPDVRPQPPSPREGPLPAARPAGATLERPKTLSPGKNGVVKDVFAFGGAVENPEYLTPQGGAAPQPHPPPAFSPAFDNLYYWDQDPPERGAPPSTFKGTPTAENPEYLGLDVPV
Sequence of Tyrosine-protein kinase Fyn (P06241 whole entry): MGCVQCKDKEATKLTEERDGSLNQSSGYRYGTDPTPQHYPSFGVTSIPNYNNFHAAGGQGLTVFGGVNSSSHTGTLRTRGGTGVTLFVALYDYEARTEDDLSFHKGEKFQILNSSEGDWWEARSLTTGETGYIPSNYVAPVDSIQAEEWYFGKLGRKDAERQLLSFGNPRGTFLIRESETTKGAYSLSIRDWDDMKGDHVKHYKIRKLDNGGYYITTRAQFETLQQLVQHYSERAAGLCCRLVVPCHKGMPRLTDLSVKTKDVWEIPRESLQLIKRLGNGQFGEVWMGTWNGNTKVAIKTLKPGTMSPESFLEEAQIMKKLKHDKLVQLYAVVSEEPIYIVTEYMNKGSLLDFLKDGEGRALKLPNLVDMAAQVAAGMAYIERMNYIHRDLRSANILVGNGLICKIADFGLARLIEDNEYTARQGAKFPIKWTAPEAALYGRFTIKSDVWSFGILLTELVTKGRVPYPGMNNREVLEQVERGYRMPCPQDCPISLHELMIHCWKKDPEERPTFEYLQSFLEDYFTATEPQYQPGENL
Sequence of Macrophage-stimulating protein receptor (Q04912 25-304 limits assumed): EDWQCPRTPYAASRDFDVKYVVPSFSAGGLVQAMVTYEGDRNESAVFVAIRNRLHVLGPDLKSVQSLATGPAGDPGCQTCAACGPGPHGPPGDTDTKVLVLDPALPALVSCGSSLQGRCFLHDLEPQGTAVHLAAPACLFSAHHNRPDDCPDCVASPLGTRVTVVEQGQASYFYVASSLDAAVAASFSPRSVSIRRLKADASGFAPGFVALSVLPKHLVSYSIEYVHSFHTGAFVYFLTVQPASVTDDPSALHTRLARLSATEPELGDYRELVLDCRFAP
Sequence of Macrophage-stimulating protein receptor (Q04912 310-1400 limits assumed): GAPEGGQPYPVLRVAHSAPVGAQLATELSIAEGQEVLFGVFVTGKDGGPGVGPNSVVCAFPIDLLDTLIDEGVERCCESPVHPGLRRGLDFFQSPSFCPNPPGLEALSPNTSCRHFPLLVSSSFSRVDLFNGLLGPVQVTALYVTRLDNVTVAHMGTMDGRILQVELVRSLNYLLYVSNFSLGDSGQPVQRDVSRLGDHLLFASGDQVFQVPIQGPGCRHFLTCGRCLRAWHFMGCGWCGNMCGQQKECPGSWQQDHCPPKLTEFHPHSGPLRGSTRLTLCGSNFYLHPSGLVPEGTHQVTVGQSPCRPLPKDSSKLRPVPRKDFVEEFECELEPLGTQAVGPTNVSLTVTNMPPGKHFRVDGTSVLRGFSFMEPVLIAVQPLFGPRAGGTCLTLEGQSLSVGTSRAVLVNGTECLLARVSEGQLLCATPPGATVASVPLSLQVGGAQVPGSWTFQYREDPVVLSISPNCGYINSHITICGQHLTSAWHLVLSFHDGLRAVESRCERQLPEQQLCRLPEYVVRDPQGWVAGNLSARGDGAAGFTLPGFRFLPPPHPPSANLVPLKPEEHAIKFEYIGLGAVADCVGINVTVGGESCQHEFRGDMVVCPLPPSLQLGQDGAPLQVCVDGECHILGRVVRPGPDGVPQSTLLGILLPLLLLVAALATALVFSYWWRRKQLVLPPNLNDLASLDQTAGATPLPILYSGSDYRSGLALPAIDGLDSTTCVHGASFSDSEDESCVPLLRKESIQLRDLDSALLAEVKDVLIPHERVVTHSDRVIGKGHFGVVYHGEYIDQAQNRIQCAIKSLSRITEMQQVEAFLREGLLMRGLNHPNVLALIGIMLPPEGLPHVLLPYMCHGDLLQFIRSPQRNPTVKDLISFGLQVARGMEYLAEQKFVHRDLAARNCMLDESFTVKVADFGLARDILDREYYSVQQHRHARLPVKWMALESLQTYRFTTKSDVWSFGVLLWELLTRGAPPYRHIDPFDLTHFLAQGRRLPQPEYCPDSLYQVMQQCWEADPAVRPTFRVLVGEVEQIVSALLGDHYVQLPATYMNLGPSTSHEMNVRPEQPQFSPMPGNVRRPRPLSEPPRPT
Sequence of Lymphokine-activated killer T-cell-originated protein kinase (Q96KB5 whole entry): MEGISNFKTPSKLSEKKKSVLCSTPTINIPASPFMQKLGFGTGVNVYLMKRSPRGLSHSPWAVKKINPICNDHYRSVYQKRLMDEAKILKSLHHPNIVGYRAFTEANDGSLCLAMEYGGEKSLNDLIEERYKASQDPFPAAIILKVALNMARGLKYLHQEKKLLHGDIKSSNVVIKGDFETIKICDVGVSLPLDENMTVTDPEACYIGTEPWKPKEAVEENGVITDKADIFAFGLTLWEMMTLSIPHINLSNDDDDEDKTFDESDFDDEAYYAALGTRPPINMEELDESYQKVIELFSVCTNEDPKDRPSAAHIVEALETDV
Sequence of Mitogen-activated protein kinase 9 (P45984 whole entry): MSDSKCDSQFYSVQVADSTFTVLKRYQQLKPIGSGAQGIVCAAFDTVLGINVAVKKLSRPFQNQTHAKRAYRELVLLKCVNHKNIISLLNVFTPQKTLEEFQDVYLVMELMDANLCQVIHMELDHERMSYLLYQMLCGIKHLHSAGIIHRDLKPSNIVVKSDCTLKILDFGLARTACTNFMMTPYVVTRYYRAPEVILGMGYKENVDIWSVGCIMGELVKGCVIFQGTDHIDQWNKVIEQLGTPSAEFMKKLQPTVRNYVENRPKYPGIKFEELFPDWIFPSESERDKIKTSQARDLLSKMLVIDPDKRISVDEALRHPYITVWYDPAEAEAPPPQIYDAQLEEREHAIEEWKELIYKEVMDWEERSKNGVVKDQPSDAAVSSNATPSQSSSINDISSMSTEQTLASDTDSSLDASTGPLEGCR
Sequence of Dual specificity tyrosine-phosphorylation-regulated kinase 3 (O43781 whole entry): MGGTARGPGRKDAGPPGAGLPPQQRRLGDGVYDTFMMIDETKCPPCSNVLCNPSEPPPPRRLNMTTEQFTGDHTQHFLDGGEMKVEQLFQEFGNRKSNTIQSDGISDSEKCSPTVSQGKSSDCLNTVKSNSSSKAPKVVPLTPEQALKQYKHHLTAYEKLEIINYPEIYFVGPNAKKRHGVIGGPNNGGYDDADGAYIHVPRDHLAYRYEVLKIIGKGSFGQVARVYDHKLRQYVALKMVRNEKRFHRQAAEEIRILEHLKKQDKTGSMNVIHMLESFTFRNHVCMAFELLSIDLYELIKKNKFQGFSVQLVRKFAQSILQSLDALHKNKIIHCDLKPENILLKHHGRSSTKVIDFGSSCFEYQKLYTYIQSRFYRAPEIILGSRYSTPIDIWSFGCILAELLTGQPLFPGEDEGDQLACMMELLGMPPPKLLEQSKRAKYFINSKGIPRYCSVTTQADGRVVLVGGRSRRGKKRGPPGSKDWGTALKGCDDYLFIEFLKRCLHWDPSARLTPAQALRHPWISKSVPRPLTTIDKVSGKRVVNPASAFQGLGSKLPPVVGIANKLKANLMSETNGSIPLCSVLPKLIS

| SMILES | Ki [2] | Ki [6] | Ki [10] | Ki [11] | Ki [12] | Ki [13] | Ki [17] | Ki [20] | Ki [21] | Ki [22] | Ki (Aurora kinase A) | other results |
| --- | --- | --- | --- | --- | --- | --- | --- | --- | --- | --- | --- | --- |
| O=C1C2=[N+]([O-])[C@H]3CCCC[C@H]3[N+]([O-])=C2c2ccccc21 | – | – | – | – | – | – | – | – | – | – | – | IC50 [1]: 16.8 µM (active); EC50 (H4): 23.5 µM (active) |
| NC1CCC(Nc2nccc(-c3c[nH]c4ncccc34)n2)CC1 (stereo unspecified) | > 10 µM (inactive) | 0.126 µM (active) | 0.794 µM (active) | 0.0631 µM (active) | > 0.794 µM (inactive) | 0.631 µM (active) | > 1.58 µM (inactive) | – | – | – | – | Ki [3]: > 1.26 µM (inactive); Ki [4]: 0.0251 µM (active); Ki [5]: 1 µM (active); Ki [7]: > 2 µM (inactive); Ki [8]: > 0.631 µM (inactive); Ki [9]: 0.1 µM (active); Ki [14]: 1.58 µM (active); Ki [15]: > 2 µM (inactive); Ki (Ephrin type-A receptor 2): > 3.16 µM (inactive); Ki [16]: 0.0398 µM (active); Ki [18]: > 5.01 µM (inactive) |
| COC(C(=O)N1Cc2[nH]nc(NC(=O)c3ccc(N4CCN(C)CC4)cc3)c2C1)c1ccccc1 (stereo unspecified) | – | – | > 1.58 µM (inactive) | > 6.31 µM (inactive) | – | > 10 µM (inactive) | > 1.58 µM (inactive) | – | – | – | – | Ki [19]: > 7.94 µM (inactive) |
| CC(C)(O)c1cn(-c2ccc3[nH]ncc3c2)nn1 | – | – | – | – | 100 µM (active) | – | – | 31.6 µM (active) | 39.8 µM (active) | 39.8 µM (active) | 25.1 µM (active) | – |
| OCc1cc(-c2ccc3[nH]ncc3c2)on1 | 39.8 µM (active) | 79.4 µM (active) | – | – | – | – | – | 20 µM (active) | 12.6 µM (active) | 39.8 µM (active) | 15.8 µM (active) | – |
